Laboratory results: patent US9695133B2, “Quinazolinone-based oncogenic-RAS-selective lethal compounds and their use” (THE TRUSTEES OF COLUMBIA UNIVERSITY IN THE CITY OF NEW YORK, priority 2012, dated 2017)

System: HT-1080 cells
Assay: Metabolite profiling (LC-MS/MS) upon erastin treatment
Assay type: cell-based, human
Conditions: 5 μg/mL erastin 5 h
Procedure: 2 million HT-1080 cells were seeded in 10 cm culture dishes. […] 4 mL of cold 80% methanol was added to the cell monolayer to extract polar metabolites using a cell scraper. The cell lysate/methanol mixture was transferred to a 15 mL tube and centrifuged at 2,000×g at 4° C. for 10 minutes to pellet debris and proteins. The supernatant was transferred to a new tube and stored at −80° C. for liquid chromatography-mass spectrometry/mass spectrometry (LC-MS/MS) analysis. For lipid extract preparation, 3 mL of cold 100% isopropanol was added to the cell monolayer to scrape out cells. The resulting cell lysate/isopropanol mixture was transferred to a new 15 mL tube and centrifuged at 2,000×g at 4° C. for 10 minutes. The cleared supernatant was transferred to a new tube and stored at −20° C. for LC-MS/MS analysis.
The metabolite extract was subjected to LC-MS/MS analysis to determine the quantity of each metabolite in each sample.

SMILES: CCOc1ccccc1-n1c(C(C)N2CCN(C(=O)COc3ccc(Cl)cc3)CC2)nc2ccccc2c1=O (stereo not drawn) [erastin]
- C36:1 DAG Erastin/DMSO: 0.9334
- C36:1 DAG log2 (Erastin/DMSO): −0.09938
- C36:1 PC Erastin/DMSO: 0.6286
- C36:1 PC log2 (Erastin/DMSO): −0.6697
- C36:1 PE Erastin/DMSO: 0.9953
- C36:1 PE log2 (Erastin/DMSO): −0.006813
- C36:2 DAG Erastin/DMSO: 0.9163
- C36:2 DAG log2 (Erastin/DMSO): −0.1261
- C36:2 PC Erastin/DMSO: 0.8729
- C36:2 PC log2 (Erastin/DMSO): −0.1962
- C36:2 PE Erastin/DMSO: 0.9352
- C36:2 PE log2 (Erastin/DMSO): −0.09672
- C36:2 PI Erastin/DMSO: 1.021
- C36:2 PI log2 (Erastin/DMSO): 0.02948
- C36:3 DAG Erastin/DMSO: 1.092
- C36:3 DAG log2 (Erastin/DMSO): 0.1266
- C36:3 PC Erastin/DMSO: 0.9251
- C36:3 PC log2 (Erastin/DMSO): −0.1124
- C36:4 PC Erastin/DMSO: 0.9027
- C36:4 PC log2 (Erastin/DMSO): −0.1477
- C36:4 PI Erastin/DMSO: 1.395
- C36:4 PI log2 (Erastin/DMSO): 0.4801
- C38:2 PC Erastin/DMSO: 0.8405
- C38:2 PC log2 (Erastin/DMSO): −0.2507
- C38:3 PC Erastin/DMSO: 0.6597
- C38:3 PC log2 (Erastin/DMSO): −0.6001
- C38:4 PC Erastin/DMSO: 0.6814
- C38:4 PC log2 (Erastin/DMSO): −0.5533
- C38:4 PI Erastin/DMSO: 0.9823
- C38:4 PI log2 (Erastin/DMSO): −0.02583
- C38:5 PC Erastin/DMSO: 0.8836
- C38:5 PC log2 (Erastin/DMSO): −0.1786
- C38:6 PC Erastin/DMSO: 0.9708
- C38:6 PC log2 (Erastin/DMSO): −0.0428
- C44:0 TAG Erastin/DMSO: 0.9683
- C44:0 TAG log2 (Erastin/DMSO): −0.04648
- C44:1 TAG Erastin/DMSO: 1.639
- C44:1 TAG log2 (Erastin/DMSO): 0.7127
- C46:0 TAG Erastin/DMSO: 0.9424
- C46:0 TAG log2 (Erastin/DMSO): −0.08557
- C46:1 TAG Erastin/DMSO: 1.171
- C46:1 TAG log2 (Erastin/DMSO): 0.2276
- C46:2 TAG Erastin/DMSO: 1.542
- C46:2 TAG log2 (Erastin/DMSO): 0.6247
- C48:0 TAG Erastin/DMSO: 1.098
- C48:0 TAG log2 (Erastin/DMSO): 0.1354
- C48:1 TAG Erastin/DMSO: 1.059
- C48:1 TAG log2 (Erastin/DMSO): 0.08209
- C48:2 TAG Erastin/DMSO: 1.121
- C48:2 TAG log2 (Erastin/DMSO): 0.1647
- C48:3 TAG Erastin/DMSO: 1.52
- C48:3 TAG log2 (Erastin/DMSO): 0.6042
- C50:0 TAG Erastin/DMSO: 0.9625
- C50:0 TAG log2 (Erastin/DMSO): −0.05513
- C50:1 TAG Erastin/DMSO: 1.011
- C50:1 TAG log2 (Erastin/DMSO): 0.01634
- C50:2 TAG Erastin/DMSO: 1.073
- C50:2 TAG log2 (Erastin/DMSO): 0.1023
- C50:3 TAG Erastin/DMSO: 1.241
- C50:3 TAG log2 (Erastin/DMSO): 0.3115
- C50:4 TAG Erastin/DMSO: 1.682
- C50:4 TAG log2 (Erastin/DMSO): 0.7502
- C50:5 TAG Erastin/DMSO: 1.277
- C50:5 TAG log2 (Erastin/DMSO): 0.3528
- C52:0 TAG Erastin/DMSO: 1.041
- C52:0 TAG log2 (Erastin/DMSO): 0.05755
- C52:1 TAG Erastin/DMSO: 0.897
- C52:1 TAG log2 (Erastin/DMSO): −0.1568
- C52:2 TAG Erastin/DMSO: 0.9964
- C52:2 TAG log2 (Erastin/DMSO): −0.005196
- C52:3 TAG Erastin/DMSO: 1.124
- C52:3 TAG log2 (Erastin/DMSO): 0.168
- C52:4 TAG Erastin/DMSO: 1.305
- C52:4 TAG log2 (Erastin/DMSO): 0.3844
- C52:5 TAG Erastin/DMSO: 1.279
- C52:5 TAG log2 (Erastin/DMSO): 0.355
- C52:6 TAG Erastin/DMSO: 1.602
- C52:6 TAG log2 (Erastin/DMSO): 0.6796
- C54:1 TAG Erastin/DMSO: 0.8628
- C54:1 TAG log2 (Erastin/DMSO): −0.2129
- C54:2 TAG Erastin/DMSO: 0.8696
- C54:2 TAG log2 (Erastin/DMSO): −0.2016
- C54:3 TAG Erastin/DMSO: 0.9692
- C54:3 TAG log2 (Erastin/DMSO): −0.04517
- C54:4 TAG Erastin/DMSO: 1.178
- C54:4 TAG log2 (Erastin/DMSO): 0.2363
- C54:5 TAG Erastin/DMSO: 1.315
- C54:5 TAG log2 (Erastin/DMSO): 0.3952
- C54:6 TAG Erastin/DMSO: 1.267
- C54:6 TAG log2 (Erastin/DMSO): 0.3411
- C54:7 TAG Erastin/DMSO: 1.062
- C54:7 TAG log2 (Erastin/DMSO): 0.08689
- C54:8 TAG Erastin/DMSO: 0.9067
- C54:8 TAG log2 (Erastin/DMSO): −0.1413
- C54:9 TAG Erastin/DMSO: 1.331
- C54:9 TAG log2 (Erastin/DMSO): 0.4129
- C54:10 TAG Erastin/DMSO: 0.8851
- C54:10 TAG log2 (Erastin/DMSO): −0.1761
- C56:2 TAG Erastin/DMSO: 0.9703
- C56:2 TAG log2 (Erastin/DMSO): −0.04354
- C56:3 TAG Erastin/DMSO: 0.8103
- C56:3 TAG log2 (Erastin/DMSO): −0.3035
- C56:4 TAG Erastin/DMSO: 0.9505
- C56:4 TAG log2 (Erastin/DMSO): −0.07326
- C56:5 TAG Erastin/DMSO: 1.134
- C56:5 TAG log2 (Erastin/DMSO): 0.1814
- C56:6 TAG Erastin/DMSO: 1.047
- C56:6 TAG log2 (Erastin/DMSO): 0.06693
- C56:7 TAG Erastin/DMSO: 1.062
- C56:7 TAG log2 (Erastin/DMSO): 0.08653
- C56:8 TAG Erastin/DMSO: 1.178
- C56:8 TAG log2 (Erastin/DMSO): 0.2368
- C56:9 TAG Erastin/DMSO: 0.9865
- C56:9 TAG log2 (Erastin/DMSO): −0.01961
- C56:10 TAG Erastin/DMSO: 0.9129
- C56:10 TAG log2 (Erastin/DMSO): −0.1315
- C58:6 TAG Erastin/DMSO: 1.047
- C58:6 TAG log2 (Erastin/DMSO): 0.06641
- C58:7 TAG Erastin/DMSO: 1.071
- C58:7 TAG log2 (Erastin/DMSO): 0.09945
- C58:8 TAG Erastin/DMSO: 1.118
- C58:8 TAG log2 (Erastin/DMSO): 0.1603
- C58:9 TAG Erastin/DMSO: 1.176
- C58:9 TAG log2 (Erastin/DMSO): 0.2336
- CMP Erastin/DMSO: 0.9376
- CMP log2 (Erastin/DMSO): −0.09295
- DHAP Erastin/DMSO: 1.227
- DHAP log2 (Erastin/DMSO): 0.2955
- F1P Erastin/DMSO: 0.9652
- F1P log2 (Erastin/DMSO): −0.05103
- F16DP/F26DP/G16DP Erastin/DMSO: 1.303
- F16DP/F26DP/G16DP log2 (Erastin/DMSO): 0.3816
